In brackets after ≈: the same amount, converted by molar mass.
Legend:
[1] = system: clinical isolates carrying AAC(3)-IV; experiment: MIC broth microdilution, AAC(3)-IV; type: cell-based; details: for MIC: clinical isolates, IMM Univ. Zurich, AAC(3)-IV, read-out: MIC AAC(3)-IV
Procedure, shortened: (§1)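 Clinical isolates supplied by the Zurich Institute of Medical Microbiology were tested for MIC (μg/ml) using CLSI M07-A10 broth microdilution.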

[2] = system: clinical isolates carrying APH(3′)-I; experiment: MIC broth microdilution, APH(3′)-I; type: cell-based; details: IMM Univ. Zurich
From the text: (§2) Minimal inhibitory concentrations (MIC) have been determined by broth microdilution assays (CLSI. Methods for Dilution Antimicrobial Susceptibility Tests for Bacteria That Grow Aerobically; Approved Standard—Tenth Edition. CLSI document M07-A10. Wayne, Pa.: Clinical and Laboratory Standards Institute; 2015.).
(§3) Minimal inhibitory concentrations (MICs, […]) against clinical isolates from Institute of Medical Microbiology, Univ. Zurich, and the IC50 values for bacterial, human mitochondrial and human cytosolic ribosomes are indicated.

[3] = system: clinical isolates carrying APH(3′)-II; experiment: MIC broth microdilution, APH(3′)-II; type: cell-based; details: clinical isolates, IMM Univ. Zurich; APH(3′)-II; read-out: MIC APH(3′)-II
From the text: as §2, §3

[4] = system: clinical isolates carrying APH(3′)-III; experiment: MIC broth microdilution, APH(3′)-III; type: cell-based; details: IMM Univ. Zurich
From the text: as §2, §3

[5] = system: clinical isolates carrying APH(3′)-VI; experiment: MIC broth microdilution, APH(3′)-VI; type: cell-based; details: IMM Univ. Zurich
From the text: as §2, §3

bacterial ribosomes = experiment: in-vitro translation assay, bacterial ribosomes; type: biochemical
Procedure, shortened: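 Cell-free translation; IC50 read-out. Mito = human chimeric ribosomes; cytosolic = rabbit reticulocyte ribosomes; bacterial ribosomes run in the same assay format.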

[6] = system: human mitochondrial ribosomes; experiment: in-vitro translation assay, human mitochondrial (human chimeric) ribosomes; type: biochemical
Procedure, shortened: (§4)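 Reported values are IC50s for inhibition of in-vitro translation. For the mitochondrial target, human chimeric ribosomes were used. For the cytosolic target, rabbit reticulocyte ribosomes were used.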

[7] = system: human cytosolic ribosomes; experiment: in-vitro translation assay, human cytosolic ribosomes; type: biochemical
Procedure, shortened: as §4

[8] = system: AG212, Escherichia coli ATCC25922; experiment: MIC reference strain AG212; type: cell-based; details: Escherichia coli; reference strain ATCC25922; read-out: MIC AG212 E. coli
Procedure, shortened: (§5)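 Compounds serially diluted in broth, bacteria added, growth inhibition scored; the lowest inhibitory concentration is taken as MIC, following CLSI procedures.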

[9] = system: AG215, Klebsiella pneumonia; experiment: MIC reference strain AG215; type: cell-based; details: Klebsiella pneumoniae, reference strain; read-out: MIC AG215 K. pneumonia
Procedure, shortened: as §5

[10] = system: AG290, Enterobacter cloacae; experiment: MIC reference strain AG290; type: cell-based; details: Enterobacter cloacae; reference strain; read-out: MIC AG290 E. cloacae
Procedure, shortened: as §5

[11] = system: AG220, Pseudomonas aeruginosa ATCC27853; experiment: MIC reference strain AG220; type: cell-based; details: Pseudomonas aeruginosa, ATCC27853, reference strain ATCC27853; read-out: MIC AG220 P. aeruginosa
Procedure, shortened: as §5

[12] = system: AG225, Acinetobacter baumannii pittii; experiment: MIC reference strain AG225; type: cell-based; details: Acinetobacter baumannii, reference strain; read-out: MIC AG225 A. baumannii
Procedure, shortened: as §5

AG001 E. coli WT = experiment: Antibacterial activity, clinical isolate AG001; type: cell-based; parameters: unit not given here
Procedure, shortened: (§6)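 Compounds are serially diluted in liquid medium in microplates, bacteria are added, and the lowest concentration preventing growth is recorded as the MIC (CLSI procedure).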

AG055 E. coli WT = experiment: Antibacterial activity, clinical isolate AG055; type: cell-based; parameters: unit not given here
Procedure, shortened: as §6

AG003 E. coli AAC(3)-II = experiment: Antibacterial activity, clinical isolate AG003; type: cell-based
Procedure, shortened: as §6

AG173 E. coli AAC(3)-IV = experiment: Antibacterial activity, clinical isolate AG173; type: cell-based
Procedure, shortened: as §6

AG163 E. coli APH(3′)-I = experiment: Antibacterial activity, clinical isolate AG163; type: cell-based
From the text: as §2
Table 4 and 5 show the antibacterial activity of the compounds of the invention against bacterial reference strains (table 4) and against representative clinical isolates (table 5).

AG038 MRSA = experiment: Antibacterial activity, clinical isolate AG038; type: cell-based; parameters: unit not given here
Procedure, shortened: as §6

[13] = system: AG039 MRSA AAC(6′)-I ANT(4′)-I; experiment: Antibacterial activity, clinical isolate AG039; type: cell-based
Procedure, shortened: as §6

[14] = system: AG042 MRSA AAC(6′)-I ANT(4′)-I APH(2′); experiment: Antibacterial activity, clinical isolate AG042; type: cell-based; parameters: unit not given here
Procedure, shortened: as §6

AG031 P. aer. APH(3′)-II = experiment: Antibacterial activity, clinical isolate AG031; type: cell-based; parameters: unit not given here
Procedure, shortened: as §6

AG032 P. aer. APH(3′)-II = experiment: Antibacterial activity, clinical isolate AG032; type: cell-based; parameters: unit not given here
Procedure, shortened: as §6

[15] = system: AG033 P. aer. APH(3′)-II AAC(6′)-I; experiment: Antibacterial activity, clinical isolate AG033; type: cell-based; parameters: unit not given here
Procedure, shortened: as §6

[16] = system: Engineered E. coli pH430 WT; experiment: Activity, engineered E. coli pH430 WT; type: cell-based; details: wild type
Procedure, shortened: (§7)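 Strains are tested by broth microdilution under the CLSI M07-A10 procedure. The lowest inhibitory concentration is recorded as the MIC.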

[17] = system: Engineered E. coli AG103 armA; experiment: Activity against G1405-methylated 16S-rRNA, E. coli AG103 armA; type: cell-based
Procedure, shortened: as §7

[18] = system: Engineered E. coli pH424 armA; experiment: Activity against G1405-methylated 16S-rRNA, E. coli pH424 armA; type: cell-based
Procedure, shortened: as §7

[19] = system: Engineered E. coli pH425 rmtB; experiment: Activity against G1405-methylated 16S-rRNA, E. coli pH425 rmtB; type: cell-based
Procedure, shortened: as §7

[20] = system: Engineered E. coli pH426 rmtC; experiment: Activity against G1405-methylated 16S-rRNA, E. coli pH426 rmtC; type: cell-based
Procedure, shortened: as §7

[21] = system: Engineered E. coli pH427 rmtF; experiment: Activity against G1405-methylated 16S-rRNA, E. coli pH427 rmtF; type: cell-based
Procedure, shortened: as §7

[22] = system: APH(3′, 5″) resistance determinant; experiment: Susceptibility to the APH(3′, 5″) resistance determinant; type: cell-based
From the text: as §2
The introduction of a formamido group results in compounds that display increased selectivity for the bacterial ribosome over the mitochondrial (wild type and A1555G mutant) ribosomes, predictive of reduced ototoxicity.

WT clinical isolates = experiment: MIC broth microdilution, WT; type: cell-based; details: read-out: MIC WT, clinical isolates, IMM Univ. Zurich; wild type
Procedure, shortened: as §1

isolates carrying apmA = experiment: MIC broth microdilution, apmA; type: cell-based; details: apmA resistance gene
Procedure, shortened: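 Clinical isolates carrying apmA, from the University of Zurich Institute of Medical Microbiology, were tested by broth microdilution following CLSI M07-A10; values are MICs in μg/ml.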

ATCC19977 M. abcessus = experiment: MIC reference strain ATCC19977; type: cell-based; details: read-out: MIC ATCC19977 M. abcessus
Procedure, shortened: as §6

eukaryotic ribosomes = experiment: in-vitro translation assays, bacterial versus eukaryotic ribosomes; type: biochemical
From the text: IC50 values for bacterial, human chimeric, and rabbit reticulocyte ribosomes have been determined by in-vitro translation assays as described previously (Proc. Nat. Ac. Sci USA 2012, 109(27):10984-10989).

| Compound | MIC [1] [µg/mL] | IC50 (bacterial ribosomes) [µM] | IC50 [6] [µM] | IC50 [7] [µM] | MIC [8] [µg/mL] | MIC [9] [µg/mL] | MIC [10] [µg/mL] | MIC [11] [µg/mL] | MIC [12] [µg/mL] | Antibacterial activity AG001 E. coli WT (AG001 E. coli WT) | Antibacterial activity AG055 E. coli WT (AG055 E. coli WT) | Antibacterial activity AG003 E. coli AAC(3)-II (AG003 E. coli AAC(3)-II) | Antibacterial activity AG173 E. coli AAC(3)-IV (AG173 E. coli AAC(3)-IV) | Antibacterial activity AG163 E. coli APH(3′)-I (AG163 E. coli APH(3′)-I) | Antibacterial activity AG038 MRSA (AG038 MRSA) | Antibacterial activity AG039 MRSA AAC(6′)-I ANT(4′)-I [13] | Antibacterial activity AG042 MRSA AAC(6′)-I ANT(4′)-I APH(2′) [14] | Antibacterial activity AG031 P. aer. APH(3′)-II (AG031 P. aer. APH(3′)-II) | Antibacterial activity AG032 P. aer. APH(3′)-II (AG032 P. aer. APH(3′)-II) | Antibacterial activity AG033 P. aer. APH(3′)-II AAC(6′)-I [15] | also measured |
| --- | --- | --- | --- | --- | --- | --- | --- | --- | --- | --- | --- | --- | --- | --- | --- | --- | --- | --- | --- | --- | --- |
| CNC1C(OC2OC(CO)C(N)C(O)C2O)OC2CC(N)C(OC3C(N)CC(N)C(O)C3OC3OC(CO)C(OC4OC(CN)C(O)C(O)C4N)C3O)OC2C1O (stereo not drawn) [DC138, 5-O-β-(Paromobiosyl) apramycin] | > 32 | 0.1 | 2.2 | 18 | 2 | 1 | 2 | 16 | 4 | 4 | 8 | 4 | 1-2 | 8 | 2-4 | 2-4 | 2 | 32-64 | 64 | 64 | activity against the IMM clinical isolates carrying the gene for AAC(3)-IV [1]: excellent antiribosomal and antibacterial activity; MIC [2]: 16 µg/mL (≈ 19.2 µM); MIC [3]: 2 µg/mL (≈ 2.4 µM); MIC [4]: 1 to 2 µg/mL (≈ 1.2 to 2.4 µM); MIC [5]: 4 µg/mL (≈ 4.81 µM); Activity E. coli pH430 WT [16]: 2; Activity E. coli AG103 armA [17]: <0.125; Activity E. coli pH424 armA [18]: 1; Activity E. coli pH425 rmtB [19]: 1; Activity E. coli pH426 rmtC [20]: 1; Activity E. coli pH427 rmtF [21]: 1; susceptibility to the APH(3′, 5″) resistance determinant [22]: susceptible |
| CNC1C(OC2OC(CO)C(N)C(O)C2O)OC2CC(N)C(OC3C(N)CC(N)C(OCCO)C3O)OC2C1O (centres unmarked) [DC167, 6-O-(2-Hydroxyethyl)-apramycin] | > 32 | 0.18 | 379 | 382 | 16 | 4 | 8 | 32 | 16 | 16 | 16 | 16 | >128 | 8-16 | 16-32 | 16-32 | 64 | 32-64 | 32-64 | 64-128 | MIC (WT clinical isolates): 8 µg/mL (≈ 13.7 µM); MIC (isolates carrying apmA): > 64 µg/mL; MIC (ATCC19977 M. abcessus): 2 µg/mL (≈ 3.43 µM); Activity E. coli pH430 WT [16]: 8; Activity E. coli AG103 armA [17]: 4; Activity E. coli pH424 armA [18]: 8; Activity E. coli pH425 rmtB [19]: 16; Activity E. coli pH426 rmtC [20]: 16; Activity E. coli pH427 rmtF [21]: 16; target specificity for bacterial versus human rRNA (eukaryotic ribosomes): increased target specificity |

Source: patent US11485751B2, “Apramycin derivatives” (WAYNE STATE UNIVERSITY, priority 2017, dated 2022)
